Experimental data taken from US20240150377A1, “MODULATORS OF CYSTIC FIBROSIS TRANSMEMBRANE CONDUCTANCE REGULATOR” (VERTEX PHARMACEUTICALS INCORPORATED, priority 2020, published 2024).
Read-outs that look alike come from different tables or passages of the source. Blank lines part the entries; values can stand above or below the molecule they belong to.

Key:
[1] = 13-membered ring
CFTR [2] = biological target: T1, CFTR (Homo sapiens, UniProt P13569, DEL508-508); experiment: HBE2 assay: Ussing chamber assay of CFTR-mediated short-circuit currents; assay type: cell-based; details: 3 μM; F508del/MF-HBE cells; with 44 nM potentiator; 18-24 hours; 20% human serum
T1 construct: endogenous in cells; host or cells: primary human bronchial epithelial cells from CF subjects (F508del/MF-HBE), differentiated at air-liquid interface
T1 sequence (P13569 with tags, fused parts or gaps DEL508-508): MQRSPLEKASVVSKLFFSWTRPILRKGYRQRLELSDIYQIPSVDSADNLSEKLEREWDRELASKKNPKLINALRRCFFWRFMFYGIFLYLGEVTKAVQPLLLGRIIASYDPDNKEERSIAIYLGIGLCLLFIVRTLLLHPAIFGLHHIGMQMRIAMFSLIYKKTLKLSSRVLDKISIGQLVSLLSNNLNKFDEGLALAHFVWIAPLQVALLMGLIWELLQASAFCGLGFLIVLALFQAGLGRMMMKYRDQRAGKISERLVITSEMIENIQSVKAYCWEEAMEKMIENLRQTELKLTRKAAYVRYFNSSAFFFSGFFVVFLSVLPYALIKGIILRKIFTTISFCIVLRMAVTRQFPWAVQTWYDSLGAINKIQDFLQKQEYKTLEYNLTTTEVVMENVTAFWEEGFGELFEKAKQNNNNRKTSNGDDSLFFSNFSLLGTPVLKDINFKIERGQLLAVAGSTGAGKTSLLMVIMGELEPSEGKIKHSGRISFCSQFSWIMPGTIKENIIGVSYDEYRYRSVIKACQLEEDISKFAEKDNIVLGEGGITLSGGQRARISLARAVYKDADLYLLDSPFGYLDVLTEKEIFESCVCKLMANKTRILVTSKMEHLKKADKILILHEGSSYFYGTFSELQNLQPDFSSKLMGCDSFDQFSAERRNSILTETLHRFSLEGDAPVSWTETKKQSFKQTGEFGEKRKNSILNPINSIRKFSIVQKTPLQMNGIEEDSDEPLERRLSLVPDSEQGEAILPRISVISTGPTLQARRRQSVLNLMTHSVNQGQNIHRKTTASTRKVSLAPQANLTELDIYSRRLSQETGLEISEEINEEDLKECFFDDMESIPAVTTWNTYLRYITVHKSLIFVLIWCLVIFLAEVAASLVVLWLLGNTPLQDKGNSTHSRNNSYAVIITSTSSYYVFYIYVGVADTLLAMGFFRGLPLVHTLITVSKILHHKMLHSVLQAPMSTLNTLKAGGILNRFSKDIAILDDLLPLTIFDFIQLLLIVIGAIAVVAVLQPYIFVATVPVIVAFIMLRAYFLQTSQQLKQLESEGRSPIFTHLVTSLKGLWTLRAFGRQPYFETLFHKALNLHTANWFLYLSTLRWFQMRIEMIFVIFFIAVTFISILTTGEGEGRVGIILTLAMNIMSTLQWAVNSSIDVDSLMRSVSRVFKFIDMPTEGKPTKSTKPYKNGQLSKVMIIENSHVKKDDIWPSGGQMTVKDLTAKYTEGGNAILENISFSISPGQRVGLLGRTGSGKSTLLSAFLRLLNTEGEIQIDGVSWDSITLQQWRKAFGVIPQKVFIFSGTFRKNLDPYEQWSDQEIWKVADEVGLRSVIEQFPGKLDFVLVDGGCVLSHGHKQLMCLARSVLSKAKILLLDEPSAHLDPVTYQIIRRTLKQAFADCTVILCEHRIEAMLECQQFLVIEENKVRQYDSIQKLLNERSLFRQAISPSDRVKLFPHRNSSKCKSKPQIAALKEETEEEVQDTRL
Summary of the method: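 Corrector activity read as CFTR-dependent ISC (μA/cm^2): peak forskolin current minus post-inhibitor steady state. Measured at 37 °C, voltage clamp at 0 mV, on F508del/MF-HBE epithelia grown >14 days air-liquid interface in Ussing chambers.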

CFTR [3] = biological target: T1, CFTR; experiment: HBE assay: Ussing chamber assay of CFTR-mediated short-circuit currents; assay type: cell-based; details: for EC50: read-out: HBE EC50
Summary of the method: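 CFTR-mediated Isc (μA/cm²) equals the peak response to apical 20 μM forskolin minus the residual after a 20 μM each BPO/GlyH-101/CFTR inhibitor 172 cocktail, recorded in Ussing chambers at Vhold 0 mV, 37 °C, pH 7.4, with 30 μM apical amiloride. Cells were F508del/MF HBE cultures preincubated 18-24 h with corrector (concentration range or 10 μM) plus 1 μM ivacaftor in 20% human serum.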

CFTR [4] = biological target: CFTR (Homo sapiens, UniProt P13569); experiment: Membrane potential dye, Enteroid Assay A; assay type: cell-based; details: Table 6; for Ent. A Max Activity: chloride transport as % of triple combination control (Enteroid Assay A); for EC50: human enteroid cells, 18-24 hours, acute 10 μM forskolin and 300 nM ivacaftor, read-out: Ent. A EC50
Sequence of CFTR (Homo sapiens, UniProt P13569) (P13569 with tags, fused parts or gaps DEL508-508): as above
Summary of the method: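 % Activity: chloride transport relative to a 3 μM/3 μM corrector pair plus 300 nM acute potentiator control. Primary human enteroid cells, 18-24 h compound exposure at 37 °C; membrane potential dye (methyl oxonol) fluorescence over 15 min after forskolin (10 μM)/IBMX (100 μM)/Compound III (300 nM) stimulation in chloride-free buffer.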

[5] = amide bond, 13-membered ring, DMF
F508del = biological target: T2, F508del (Homo sapiens, UniProt P13569, DEL508-508); experiment: 3T3 assay: membrane potential optical assay for F508del correction; assay type: cell-based; details: Table 6, F508del NIH 3T3 cells; for Emax: NIH3T3, compared to lumacaftor in combination with acutely added 300 nM Ivacaftor, read-out: 3T3 Max Activity; for EC50: 18-24 hours at 37° C., forskolin, acutely added 300 nM Ivacaftor
T2 construct: expressed in transfected cells
T2 sequence (P13569 with tags, fused parts or gaps DEL508-508): as above
Summary of the method: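 NIH 3T3 mouse fibroblasts stably expressing F508del incubated with corrector compounds across a concentration range for 16-24 hours at 37° C, then loaded with voltage-sensing redistribution dye. Response is FLIPR membrane potential change on forskolin activation with a chloride gradient (chloride-free gluconate bath, HEPES pH 7.4).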

Structure (SMILES): Cc1cccc(C)c1-c1cc2nc(n1)NS(=O)(=O)c1cccc(c1)C(=O)N(Cc1cncc(N(C)C3CCC3)n1)C1(CCC(C)(C)C1)CO2 (centres unmarked)
- ring closure, isolated yield ([1]; from Cc1cccc(C)c1-c1cc(OCC2(NCc3cncc(N(C)C4CCC4)n3)CCC(C)(C)C2)nc(NS(=O)(=O)c2cccc(C(=O)O)c2)n1, amide bond, CDMT/NMM, DMF, 18.1 mM, 120.0 h): 36%

Structure (SMILES): Cc1cccc(C)c1-c1cc2nc(n1)NS(=O)(=O)c1cccc(c1)C(=O)N(Cc1ccc3c(I)cn(C)c3n1)[C@H](CC(C)(C)C)CO2
- ring closure, isolated yield ([1]; from Cc1cccc(C)c1-c1cc(OC[C@@H](CC(C)(C)C)NCc2ccc3c(I)cn(C)c3n2)nc(NS(=O)(=O)c2cccc(C(=O)O)c2)n1, amide bond, 2-chloro-1-methylpyridinium iodide/DIEA, DMF, 35.1 mM, 16.0 h): 61%

Structure (SMILES): Cc1cccc(C)c1-c1cc2nc(n1)NS(=O)(=O)c1cccc(c1)C(=O)N(Cc1cncc(Cl)n1)[C@H](CC1CCCCC1)CO2
- ring closure, isolated yield ([1]; from Cc1cccc(C)c1-c1cc(OC[C@@H](CC2CCCCC2)NCc2cncc(Cl)n2)nc(NS(=O)(=O)c2cccc(C(=O)O)c2)n1, amide bond, CDMT/NMM, DMF, 20.4 mM, 16.2 h): 73%

- HBE2 Activity at 3 μM (%) (CFTR [2]): +++ (+++ is >60+)
- EC50 (CFTR [3]; HBE assay): < 1000 nM
- Emax (CFTR [3]; HBE assay, read-out: HBE Max activity (%)): > 60%
Structure (SMILES): Cc1cccc(C)c1-c1cc2nc(n1)NS(=O)(=O)c1cccc(c1)C(=O)N(Cc1ncc(OC(C)C)cn1)[C@H](CCC(C)(C)C)CO2 [Compound 1296, (11R)-11-(3,3-Dimethylbutyl)-6-(2,6-dimethylphenyl)-12-[(5-isopropoxypyrimidin-2-yl)methyl]-2,2-dioxo-9-oxa-2λ^6-thia-3,5,12,19-tetrazatricyclo[12.3.1.14,8]nonadeca-1(18),4(19),5,7,14,16-hexaen-13-one]
- ring closure, isolated yield ([1]; from Cc1cccc(C)c1-c1cc(OC[C@@H](CCC(C)(C)C)NCc2ncc(OC(C)C)cn2)nc(NS(=O)(=O)c2cccc(C(=O)O)c2)n1, amide bond, CDMT/NMM, DMF, 29.6 mM, 21.0 h): 60%

Structure (SMILES): Cc1cccc(C)c1-c1cc2nc(n1)NS(=O)(=O)c1cccc(c1)C(=O)N(Cc1cncc(Cl)n1)[C@H](COC1CC1)CO2
- ring closure, isolated yield ([1]; from Cc1cccc(C)c1-c1cc(OC[C@@H](COC2CC2)NCc2cncc(Cl)n2)nc(NS(=O)(=O)c2cccc(C(=O)O)c2)n1, amide bond, CDMT/NMM, DMF, 12.9 mM, 21.0 h): 97%

Structure (SMILES): Cc1cccc(C)c1-c1cc2nc(n1)NS(=O)(=O)c1cccc(c1)C(=O)N(CCC1CCN(C(=O)OC(C)(C)C)CC1)[C@H](CC(C)C)CO2
- ring closure, isolated yield ([1]; from Cc1cccc(C)c1-c1cc(OC[C@@H](CC(C)C)NCCC2CCN(C(=O)OC(C)(C)C)CC2)nc(NS(=O)(=O)c2cccc(C(=O)O)c2)n1, amide bond, HATU/TEA, DMF, 125.0 mM, 25.0 °C, 1.0 h, 2 steps): 94%

Structure (SMILES): Cc1cccc(C)c1-c1cc2nc(n1)NS(=O)(=O)c1cccc(c1)C(=O)N(CC1CC3(CCN(C(=O)OC(C)(C)C)CC3)C1)[C@H](CC(C)C)CO2
- ring closure, isolated yield ([1]; from Cc1cccc(C)c1-c1cc(OC[C@@H](CC(C)C)NCC2CC3(CCN(C(=O)OC(C)(C)C)CC3)C2)nc(NS(=O)(=O)c2cccc(C(=O)O)c2)n1, amide bond, HATU/DIEA, DMF, 9.3 mM, 25.0 °C, 2.0 h, 2 steps): 33%

Structure (SMILES): Cc1cccc(C)c1-c1cc2nc(n1)NS(=O)(=O)c1cccc(c1)C(=O)N(CCC1(C(F)(F)F)CC1)[C@@H]1CN(C(=O)OC(C)(C)C)C[C@H]1O2
- ring closure, isolated yield ([1]; from Cc1cccc(C)c1-c1cc(O[C@@H]2CN(C(=O)OC(C)(C)C)C[C@H]2NCCC2(C(F)(F)F)CC2)nc(NS(=O)(=O)c2cccc(C(=O)O)c2)n1, amide bond, COMU/DIEA, DMF, 10.6 mM, 72.0 h): 92%

Structure (SMILES): Cc1cccc(C)c1-c1cc2nc(n1)NS(=O)(=O)c1cccc(c1)C(=O)N(Cc1cncc(Cl)n1)[C@H](CC(C)(C)C)CO2
- ring closure, isolated yield ([1]; from Cc1cccc(C)c1-c1cc(OC[C@@H](CC(C)(C)C)NCc2cncc(Cl)n2)nc(NS(=O)(=O)c2cccc(C(=O)O)c2)n1, amide bond, CDMT/NMM, DMF, 12.4 mM, 25.0 °C, 16.5 h): 56%

- EC50 (CFTR [3]; Table 11): < 1000 nM
- Emax (CFTR [3]; Table 11, read-out: HBE Max Activity (%)): > 60%
Structure (SMILES): Cc1cccc(C)c1-c1cc2nc(n1)NS(=O)(=O)c1cccc(c1)C(=O)N(Cc1ncc(N3CC(C)(C)C3)cn1)[C@H](CC(C)(C)C)CO2 [Compound 331]
- ring closure, isolated yield ([1]; from Cc1cccc(C)c1-c1cc(OC[C@@H](CC(C)(C)C)NCc2ncc(N3CC(C)(C)C3)cn2)nc(NS(=O)(=O)c2cccc(C(=O)O)c2)n1, amide bond, T3P/DIEA, MeCN, 34.5 mM, 0.0 °C, 2.5 h): 53%

Structure (SMILES): Cc1cccc(C)c1-c1cc2nc(n1)NS(=O)(=O)c1cccc(c1)C(=O)N(Cc1cccc(NC(=O)OC(C)(C)C)n1)[C@H](CC(C)(C)C)CO2
- ring closure, isolated yield ([1]; from Cc1cccc(C)c1-c1cc(OC[C@@H](CC(C)(C)C)NCc2cccc(NC(=O)OC(C)(C)C)n2)nc(NS(=O)(=O)c2cccc(C(=O)O)c2)n1, amide bond, HATU/DIEA, DMF, 16.0 h, 2 steps): 31%

Structure (SMILES): CCC(C)(C)CC1COc2cc(-c3c(C)cccc3C)nc(n2)NS(=O)(=O)c2cccc(c2)C(=O)N1Cc1cncc(N(C)C2CCC2)n1 (centres unmarked)
- ring closure, isolated yield ([1]; from CCC(C)(C)CC(COc1cc(-c2c(C)cccc2C)nc(NS(=O)(=O)c2cccc(C(=O)O)c2)n1)NCc1cncc(N(C)C2CCC2)n1, amide bond, CDMT/NMM, DMF, 19.5 mM, 16.2 h): 65%

- Ent. A Max Activity (CFTR [4]): +++ (+++ is >60%)
- EC50 (CFTR [4]): < 1000 nM
- Emax (F508del): > 60%
- EC50 (F508del): < 1000 nM
Structure (SMILES): Cc1cccc(C)c1-c1cc2nc(n1)NS(=O)(=O)c1cccc(c1)C(=O)N(CCC1(C(F)(F)F)CC1)[C@H](CC(C)C)CO2 [Compound 37, (11R)-6-(2,6-Dimethylphenyl)-11-(2-methylpropyl)-12-{2-[1-(trifluoromethyl)cyclopropyl]ethyl}-9-oxa-2λ^6-thia-3,5,12,19-tetraazatricyclo[12.3.1.14,8]nonadeca-1(17),4(19),5,7,14(18),15-hexaene-2,2,13-trione]
- ring closure, yield after HPLC ([5]; from Cc1cccc(C)c1-c1cc(OC[C@@H](CC(C)C)NCCC2(C(F)(F)F)CC2)nc(NS(=O)(=O)c2cccc(C(=O)O)c2)n1, HATU/DIEA, 25.2 mM, 25.0 °C, 1.0 h): 37%

Structure (SMILES): Cc1cccc(C)c1-c1cc2nc(n1)NS(=O)(=O)c1cccc(c1)C(=O)N(Cc1cncc(N3CCCC[C@H]3C)n1)C(CCC(C)(C)F)CO2 (some centres unmarked)
- ring closure, isolated yield ([1]; from Cc1cccc(C)c1-c1cc(OCC(CCC(C)(C)F)NCc2cncc(N3CCCC[C@H]3C)n2)nc(NS(=O)(=O)c2cccc(C(=O)O)c2)n1, amide bond, CDMT/NMM, DMF, 19.8 mM, 16.0 h): 54%

- Ent. A Max Activity (CFTR [4]): +++ (+++ is >60%)
- EC50 (CFTR [4]): < 1000 nM
- Emax (F508del): > 60%
- EC50 (F508del): < 1000 nM
Structure (SMILES): Cc1cccc(C)c1-c1cc2nc(n1)NS(=O)(=O)c1cccc(c1)C(=O)N(CC(C)C)CCO2 [Compound 4, 6-(2,6-Dimethylphenyl)-12-isobutyl-2,2-dioxo-9-oxa-2λ^6-thia-3,5,12,19-tetrazatricyclo[12.3.1.14,8]nonadeca-1(18),4(19),5,7,14,16-hexaen-13-one]
- ring closure, yield after HPLC ([5]; from Cc1cccc(C)c1-c1cc(OCCNCC(C)C)nc(NS(=O)(=O)c2cccc(C(=O)O)c2)n1, HATU/TEA, 91.6 mM, 0.5 h): 48%

Structure (SMILES): COCN1c2nc(cc(-c3c(C)cccc3C)n2)OC[C@@H](CC(C)(C)C)NC(=O)c2cccc(c2)S1(=O)=O
- ring closure, isolated yield ([1]; from COCN(c1nc(OC[C@H](N)CC(C)(C)C)cc(-c2c(C)cccc2C)n1)S(=O)(=O)c1cccc(C(=O)O)c1, amide bond, HATU/DIEA, DMF, 107.6 mM, 0.33 h): 39%

Structure (SMILES): Cc1cccc(C)c1-c1cc2nc(n1)NS(=O)(=O)c1cccc(c1)C(=O)N(Cc1ccc3cc(I)n(C)c3n1)[C@H](CC(C)(C)C)CO2
- ring closure, isolated yield ([1]; from Cc1cccc(C)c1-c1cc(OC[C@@H](CC(C)(C)C)NCc2ccc3cc(I)n(C)c3n2)nc(NS(=O)(=O)c2cccc(C(=O)O)c2)n1, amide bond, 2-chloro-1-methylpyridinium iodide/DIEA, DMF, 41.5 mM, 16.0 h): 72%

Structure (SMILES): Cc1cccc(C)c1-c1cc2nc(n1)NS(=O)(=O)c1cccc(c1)CN(C(=O)OC(C)(C)C)[C@H](CC(C)C)CO2
- ring closure, isolated yield ([1]; from Cc1cccc(C)c1-c1cc(OC[C@@H](CC(C)C)NC(=O)OC(C)(C)C)nc(NS(=O)(=O)c2cccc(COS(C)(=O)=O)c2)n1, amine bond, NaH, DMF, 3.92 mM, 25.0 °C): 50%

Structure (SMILES): Cc1cccc(C)c1-c1cc2nc(n1)NS(=O)(=O)c1cccc(c1)C(=O)N(CCCO[Si](C)(C)C(C)(C)C)[C@H](CC(C)C)CO2
- ring closure, isolated yield ([1]; from Cc1cccc(C)c1-c1cc(OC[C@@H](CC(C)C)NCCCO[Si](C)(C)C(C)(C)C)nc(NS(=O)(=O)c2cccc(C(=O)O)c2)n1, amide bond, COMU/DIEA, DMF, 19.9 mM, 22.0 h): 43%
